Measured values: US11090271B2, “Soft gelatin capsules containing hydroxypropyl beta cyclodextrin with high stability” (ALTERGON S.A., priority 2017, dated 2021)
Values belong to the compound of their own block, whether it stands above or below them.

What was measured:
[1] = Water solubility of the active ingredient at room temperature; assay type: physicochemical; conditions: room temperature (20° C.)
Method: In a further embodiment, the active ingredient is a water-soluble one, i.e. it has a water solubility at room temperature (20° C.) higher than 0.1% w/v, preferably higher than 0.5% w/v, or more preferably higher than 1% w/v. […] According to this embodiment, the present invention is characterized as a soft gelatin capsule having inside a fill comprising a water-soluble active ingredient containing nitrogen, wherein the wall of said capsule comprises hydroxypropyl beta cyclodextrin (HPBCD) in an amount being: (a) less than 10% by weight on the weight of the wall and (b) sub-stoichiometric to form an inclusion complex with the active ingredient present in the fill.

[2] = Storage stability of aqueous diclofenac solutions complexed with HPBCD (colour); assay type: physicochemical
Method: Occasionally the complexation in cyclodextrin has been carried out to protect the active ingredients from degradation phenomena, however with modest results (International Journal of Photoenergy, 3, 2001, 205-211). […] Finally, storage stability tests were carried out with various aqueous solutions of diclofenac sodium entirely complexed with hydroxypropyl beta ciclodextrin (HPBCD), having the following composition: diclofenac sodium 40.6 mg; HPBCD 177.6 mg; purified water 782.4 mg.

- water solubility [1]: about 1.9 % w/v
Compound: diclofenac epolamine [DHEP]

- colour of the solution ([2]; aqueous solution complexed in HPBCD, storage at 25° C.±2° C., 60±5% R.H.): amber colour
Compound: O=C(O)Cc1ccccc1Nc1c(Cl)cccc1Cl [diclofenac]

- colour of the solution ([2]; aqueous solution entirely complexed with HPBCD, 18 months at 30° C. and 65% R.H.): evident amber colour
Compound: O=C(O)Cc1ccccc1Nc1c(Cl)cccc1Cl [diclofenac sodium]
